Laboratory results reported in patent publication US20110263657A1, “DIARYL UREAS FOR TREATING HEART FAILURE” (BAYER SCHERING PHARMA AKTIENGESELLSCHAFT, priority 2008, published 2011).

Test system: mouse models of pressure-induced heart failure
Assay: Pressure-induced heart failure (TAC) in mice, organ weights and hemodynamic measurements
Format: in vivo
Conditions: banded (TAC) mice, 50 mg/kg/d po for 4 weeks
Method: The effects of the compound and drug combinations according to the invention are tested in vivo in mouse models of pressure-induced heart failure.
Methods: Pressure-Induced Heart Failure (TAC)
Surgery: 8 weeks old mice were pre-anesthetized for 2-3 min in an isofluran flooded box and then intubated (tubus of own fabrication).
Mice were placed on the right side on a heating panel and the tubus was connected to a ventilation pump (Mini Vent Type 845, Hugo Sachs Electronic) which allowed the further ventilation of mice with isofluran (1.5%).
Mice were prepared for the surgery: eyes moistened with Bepanthen® salve (pharmaceutical ointment containing dexpanthenol), operation field shaved and disinfected, mice fixated with tape in a right lateral position.
The skin cut was placed ca 2 mm behind the left elbow and was 5 mm length and vertical. Pectoral muscles were separated until ribs. A wound-spreader was placed between the 2nd and the 3rd rib and thymus was visualized. After pushing by side the thymus V. cava, A pulmonalis and Aorta with both carotid branching were viewed. With help from a curved polished vessel catheter a ligation thread was placed around the aorta between both carotid branching. The aorta was constricted to a diameter of 0.6 mm with help from a splint.
By sham operated mice the same procedure was effectuated but the aorta was not constricted.
Before they woke up, mice were given 5 mg/5 ml/kg sc Rimadyl® (Pfizer, Carprofen), wound was cleaned with […] and coated with antibiotic salve (Neomycin® salve) and Bepanthen® salve was removed from the eyes.
After awaking from anesthesia the tubus was taken off and mice were placed in their cages heated with heating panels for at least half an hour.
Mice were divided into 3 groups (n=10-12): • sham operated with vehicle treatment • placebo with vehicle treatment • Sorafenib: 50 mg/kg/d in vehicle
Substances were dissolved in 10% Ethanol, 40% Solutol and 50% water.
Application volumes: 10 ml/kg/d po
Treatment: begin 1 day after surgery for 4 weeks
After 4 weeks of treatment hemodynamic measurement were performed and mice were sacrificed.
Hemodynamic measurements: Mice were pre-anesthetized for 2-3 min in an isofluran flooded box, followed by fixation in an anesthesia mask (continuous flow of 1.5% isofluran by spontaneous breathing of the mouse). Mice were placed on the back on a heating panel.
Throats were shaved and the skin incised on the median line. The right A. carotis was prepared and ligated cranial. A tip-catheter (Millar Micro-Tip-Transducer, 1.0 oder 1.4 French, Firma HSE) was introduced in the right A. carotis and pushed into the left ventricle and fixated. There, pressure of the left ventricle was registered for a few minutes (after reaching a steady state) over the catheter and analyzed by the Millar Chart 5 software. After the measurements blood samples were taken. Finally organs (heart, lung, liver, right kidney) were collected.

## CNC(=O)c1cc(Oc2ccc(NC(=O)Nc3ccc(Cl)c(C(F)(F)F)c3)cc2)ccn1 [Sorafenib, 4{4-[3-(4-chloro-3-trifluoromethylphenyl)-ureido]-phenoxy}-pyridine-2-carboxylic acid methyl amide]
  Relaxation constant tau, increment: inhibited
Compared to sham operated mice
  Heart weight/body weight ratio (hypertrophy): completely inhibited
  Left ventricular weight/body weight ratio (hypertrophy): completely inhibited
p<0.05 compared to placebo
  Left ventricular end diastolic pressure, augmentation compared to sham operated mice: 7%
  Left ventricular systolic pressure, augmentation compared to sham operated mice: 8%
